Reference: US9930890B2 (priority 2010, dated 2018)

Key:
Phytophthora infestans = assay type: in vivo; conditions: tomato plants, protective spray, active ingredient concentration 100 ppm, evaluation 7 days after inoculation; 0% = control, 100% = no infection
Plasmopara viticola = assay: Plasmopara test (grapevine)/protective; assay type: in vivo; conditions: grapevine young plants, protective spray, active ingredient concentration 10 ppm, evaluation 6 days after inoculation; 0% = control, 100% = no infection
Method: Plasmopara Test (Grapevine)/Protective
To produce an appropriate active ingredient formulation, 1 part by weight of active ingredient is mixed with the specified amounts of solvent and emulsifier, and the concentrate is diluted with water to the desired concentration.
To test for protective efficacy, young plants are sprayed with the active ingredient formulation at the stated application rate. After the spray coating has dried on, the plants are inoculated with an aqueous spore suspension of Plasmopara viticola and then remain in an incubation cabin at approx. 20° C. and 100% relative air humidity for 1 day. Subsequently, the plants are placed in a greenhouse at approx. 21° C. and approx. 90% air humidity for 4 days. The plants are then moistened and placed in an incubation cabin for 1 day.
Evaluation follows 6 days after the inoculation. 0% means an efficacy which corresponds to that of the control, whereas an efficacy of 100% means that no infection is observed.
In this test, the following inventive compounds show, at an active ingredient concentration of 10 ppm, an efficacy of 70% or more: […]

[1] = for logp [a]: pH 2.7; for logp [b]: pH 7.8

| SMILES | Eff. % (Phytophthora infestans) | Eff. % (Plasmopara viticola) | logp [a] [1] | logp [b] [1] |
| --- | --- | --- | --- | --- |
| CON=Cc1cccc(F)c1C1CC(c2csc(C3CCN(C(=O)Cn4nc(C(F)(F)F)cc4C)CC3)n2)=NO1 (mixture of isomers) [I-118] | 95% | 100% | 3.61[a], | 3.49[b] |
| C#CCOCc1ccccc1C1CC(c2csc(C3CCN(C(=O)Cn4nc(C(F)(F)F)cc4C)CC3)n2)=NO1 (racemic) [I-46] | 94% | 94% | 3.43[a] | – |
| CC(=O)OCc1ccccc1C1CC(c2csc(C3CCN(C(=O)Cn4nc(C(F)(F)F)cc4C)CC3)n2)=NO1 (racemic) [I-47] | 94% | 90% | 3.31[a] | – |
| C#CCOCc1ccccc1C1CC(c2csc(C3CCN(C(=O)Cn4nc(C(F)F)cc4C(F)F)CC3)n2)=NO1 (racemic) [I-53] | 94% | 96% | 3.31[a] | – |
| Cc1ccc(Cl)cc1NC(=O)N1CCC(c2nc(C3=NOC(c4c(Cl)cccc4OS(C)(=O)=O)C3)cs2)CC1 (racemic) [I-54] | 94% | 100% | 3.54[a], | 3.43[b] |
| CC(=O)OCc1ccccc1C1CC(c2csc(C3CCN(C(=O)Cn4nc(C(F)F)cc4C(F)F)CC3)n2)=NO1 (racemic) [I-55] | 94% | 92% | 3.22[a] | – |
| COCCS(=O)(=O)Cc1ccccc1C1CC(c2csc(C3CCN(C(=O)Cn4nc(C(F)F)cc4C(F)F)CC3)n2)=NO1 (racemic) [I-57] | 94% | 90% | 2.74[a] | – |
| CC(=NO)c1ccccc1C1CC(c2csc(C3CCN(C(=O)Cn4nc(C(F)(F)F)cc4C)CC3)n2)=NO1 (centres unmarked) [I-40, 1-[4-(4-{5-[2-(N-Hydroxyethanimidoyl)phenyl]-4,5-dihydro-1,2-phenyloxazol-3-yl}-1,3-thiazol-2-yl)piperidin-1-yl]-2-[5-methyl-3-(trifluoromethyl)-1H-pyrazol-1-yl]ethanone] | 100% | 90% | 2.92[a] | – |
| N#CCOc1ccccc1C1CC(c2csc(C3CCN(C(=O)Cn4nc(C(F)F)cc4C(F)F)CC3)n2)=NO1 (centres unmarked) [I-63] | 94% | 100% | 3[a], | 2.91[b] |
| O=C(Cn1nc(C(F)F)cc1C(F)F)N1CCC(c2nc(C3=NOC(c4ccccc4OS(=O)(=O)C4CC4)C3)cs2)CC1 (centres unmarked) [I-64] | 100% | 100% | 3.24[a], | 3.32[b] |
| Cc1ccc(C)c(NC(=O)N2CCC(c3nc(C4=NOC(c5ccccc5OS(C)(=O)=O)C4)cs3)CC2)c1 (centres unmarked) [I-74] | 100% | 100% | 3.08[a], | 3.03[b] |
| Cc1cc(C(F)F)nn1CC(=O)N1CCC(c2nc(C3=NOC(c4ccccc4OCC#N)C3)cs2)CC1 (centres unmarked) [I-76] | 100% | 93% | 2.7[a], | 2.62[b] |
| CCS(=O)(=O)Oc1cccc(C2CC(c3csc(C4CCN(C(=O)Cn5nc(C(F)F)cc5C(F)F)CC4)n3)=NO2)c1 (centres unmarked) [I-77] | 98% | 93% | 3.08[a], | 2.99[b] |
| Cc1cc(C(F)(F)F)nn1CC(=O)N1CCC(c2nc(C3=NOC(c4c(Cl)cccc4OCC#N)C3)cs2)CC1 (centres unmarked) [I-78] | 80% | 97% | 3.31[a], | 3.23[b] |
| N#CCOc1ccc(C2CC(c3csc(C4CCN(C(=O)Cn5nc(C(F)F)cc5C(F)F)CC4)n3)=NO2)cc1 (centres unmarked) [I-81] | 100% | 99% | 2.89[a], | 2.8[b] |
| C/C=C/C(=O)Oc1ccccc1C1CC(c2csc(C3CCN(C(=O)Cn4nc(C(F)F)cc4C(F)F)CC3)n2)=NO1 (centres unmarked) [I-82] | 70% | 94% | 3.46[a], | 3.37[b] |
| O=C(Cn1nc(C(F)F)cc1C(F)F)N1CCC(c2nc(C3=NOC(c4cccc(OS(=O)(=O)C5CC5)c4)C3)cs2)CC1 (centres unmarked) [I-83] | 98% | 94% | 3.17[a], | 3.07[b] |
| O=C(Cn1nc(C(F)F)cc1C(F)F)N1CCC(c2nc(C3=NOC(c4cc(F)ccc4OS(=O)(=O)C4CC4)C3)cs2)CC1 (centres unmarked) [I-84] | 90% | 100% | 3.32[a], | 3.35[b] |
| CS(=O)(=O)Oc1c(F)cccc1C1CC(c2csc(C3CCN(C(=O)Cn4nc(C(F)F)cc4C(F)F)CC3)n2)=NO1 (centres unmarked) [I-85] | 75% | 100% | 2.97[a], | 2.91[b] |

| SMILES | Eff. % (Phytophthora infestans) | Eff. % (Plasmopara viticola) | logp [a] [1] | logp [b] [1] |
| --- | --- | --- | --- | --- |
| Cc1cc(C(F)(F)F)nn1CC(=O)N1CCC(c2nc(C3=NOC(c4c(F)cccc4OCC#N)C3)cs2)CC1 (centres unmarked) [I-86] | 75% | 99% | 3.05[a], | 2.94[b] |
| N#CCCn1cccc1C1CC(c2csc(C3CCN(C(=O)Cn4nc(C(F)F)cc4C(F)F)CC3)n2)=NO1 (centres unmarked) [I-87] | 80% | 95% | 2.71[a], | 2.64[b] |
| CS(=O)(=O)Oc1cccc(Cl)c1C1CC(c2csc(C3CCN(C(=O)Cn4nc(C(F)F)cc4C(F)F)CC3)n2)=NO1 (centres unmarked) [I-102] | 75% | 100% | 3.2[a], | 3.09[b] |
| Cc1cc(C(F)(F)F)nn1CC(=O)N1CCC(c2nc(C3=NOC(c4c(Cl)cccc4OS(C)(=O)=O)C3)cs2)CC1 (centres unmarked) [I-103] | 80% | 100% | 3.28[a], | 3.2[b] |
| O=CNc1ccccc1C1CC(c2csc(C3CCN(C(=O)Cn4nc(C(F)F)cc4C(F)F)CC3)n2)=NO1 (centres unmarked) [I-108] | 100% | 93% | 2.42[a], | 2.32[b] |
| CSCOc1ccccc1C1CC(c2csc(C3CCN(C(=O)Cn4nc(C(F)F)cc4C(F)F)CC3)n2)=NO1 (centres unmarked) [I-112] | 94% | 100% | 3.49[a], | 3.56[b] |
| N#CCOc1cccc(F)c1C1CC(c2csc(C3CCN(C(=O)Cn4nc(C(F)F)cc4C(F)F)CC3)n2)=NO1 (centres unmarked) [I-113] | 85% | 100% | 2.87[a], | 2.88[b] |
| Cc1cc(C(F)(F)F)nn1CC(=O)N1CCC(c2nc(C3=NOC(c4cccc(F)c4OS(=O)(=O)C4CC4)C3)cs2)CC1 (centres unmarked) [I-114] | 94% | 100% | 3.43[a], | 3.42[b] |
| O=C(Cn1nc(C(F)F)cc1C(F)F)N1CCC(c2nc(C3=NOC(c4ccccc4OS(=O)(=O)C(F)(F)F)C3)cs2)CC1 (centres unmarked) [I-115] | 88% | 100% | 3.92[a], | 3.92[b] |
| C=CC(=O)Oc1ccccc1C1CC(c2csc(C3CCN(C(=O)Cn4nc(C(F)F)cc4C(F)F)CC3)n2)=NO1 (centres unmarked) [I-116] | 98% | 100% | 3.21[a], | 3.15[b] |
| C#CCN(C=O)c1ccccc1C1CC(c2csc(C3CCN(C(=O)Cn4nc(C(F)F)cc4C(F)F)CC3)n2)=NO1 (centres unmarked) [I-117] | 79% | 96% | 2.65[a], | 2.67[b] |
| CCS(=O)(=O)Oc1ccccc1C1CC(c2csc(C3CCN(C(=O)Cn4nc(C(F)(F)F)cc4C)CC3)n2)=NO1 (centres unmarked) [I-119] | 89% | 100% | 3.19[a], | 3.21[b] |
| CSCOc1ccccc1C1CC(c2csc(C3CCN(C(=O)Cn4nc(C(F)(F)F)cc4C)CC3)n2)=NO1 (centres unmarked) [I-120] | 89% | 95% | 3.59[a], | 3.59[b] |
| N#CCN(C=O)c1ccccc1C1CC(c2csc(C3CCN(C(=O)Cn4nc(C(F)F)cc4C(F)F)CC3)n2)=NO1 (centres unmarked) [I-121] | 100% | 98% | 2.62[a], | 2.55[b] |
| O=CNc1ccccc1C1CC(c2csc(C3CCN(C(=O)Nc4cc(C(F)F)ccc4C(F)F)CC3)n2)=NO1 (centres unmarked) [I-122] | 97% | 89% | 2.63[a], | 2.54[b] |
| O=CNc1ccccc1C1CC(c2csc(C3CCN(C(=O)Cc4cc(C(F)F)ccc4C(F)F)CC3)n2)=NO1 (centres unmarked) [I-123] | 100% | 73% | 2.74[a], | 2.64[b] |
| Cc1cc(C(F)(F)F)nn1CC(=O)N1CCC(c2nc(C3=NOC(c4ccccc4OS(=O)(=O)C(F)(F)F)C3)cs2)CC1 (centres unmarked) [I-125] | 89% | 100% | 3.99[a], | 4[b] |
| CN(C)C(=S)c1ccccc1C1CC(c2csc(C3CCN(C(=O)Cn4nc(C(F)F)cc4C(F)F)CC3)n2)=NO1 (centres unmarked) [I-127] | 97% | 96% | 3.11[a], | 3.06[b] |
| COC(=O)COc1ccc(C2CC(c3csc(C4CCN(C(=O)Cn5nc(C(F)F)cc5C(F)F)CC4)n3)=NO2)cc1 (centres unmarked) [I-128] | 90% | 93% | 2.89[a], | 2.87[b] |
